Consider 33 compounds from ChEMBL document CHEMBL5608113, “Targeting of CAF-induced therapy resistance in CRC organoid-stroma co-cultures” (2024).

Holding throughout (type): functional, Homo sapiens
What all share (settings): Homo sapiens, Concentration 10 uM; read-out: Cell Viability

Experiment [1] concerns Colon cancer organoid. The experiment can be described thus: Targeting of F14 CAF-induced therapy resistance in O14 CRC organoid-stroma co-culture. Cell viability is reported without Gefitinib.
Experiment [2] has as its system Colon cancer organoid. The experiment can be described thus: Targeting of F14 CAF-induced therapy resistance in O14 CRC organoid-stroma co-culture. Cell viability is reported with Gefitinib.
The subject of experiment [3] is Colon cancer organoid. The experiment can be described thus: Targeting of F14 CAF-induced therapy resistance in O23 CRC organoid-stroma co-culture. Cell viability is reported without Gefitinib.
The test system of experiment [4] is Colon cancer organoid. Description: Targeting of F14 CAF-induced therapy resistance in O23 CRC organoid-stroma co-culture. Cell viability is reported with Gefitinib.
Experiment [5] concerns Colon cancer organoid. Description: Targeting of F14 CAF-induced therapy resistance in O23 CRC organoid-stroma co-culture. Cell viability is reported with SN-38.

On to `O=C(Nc1cccnn1)N1CCC(=Cc2cccc(Oc3ccc(C(F)(F)F)cn3)c2)CC1`, for which the viability at 10 µM is 94% in experiment [1]; 37.7% in experiment [2]; 114% in experiment [3]; 54.6% in experiment [4]; 105% in experiment [5].
`CNc1nc(-c2ccc3c(N)n[nH]c3c2)cc(N2C[C@@H](C(=O)NC3CCCCC3)CC[C@H]2C)n1`: the viability at 10 µM in experiment [1] came to 57.6%; in experiment [2] it was 17.9%; in experiment [3], 44.8%; in experiment [4] it was 24.3%; in experiment [5], 39.8%.
As for `COc1ccc(Cn2ccc3ccc(C(=O)NO)cc32)cc1`, the viability at 10 µM was 75.4% in experiment [1]; 52.8% in experiment [2]; 126% in experiment [3]; 89.4% in experiment [4]; 94.6% in experiment [5].
In the case of `CCCc1cc(C)[nH]c(=O)c1CNC(=O)c1cc(-c2ccnc(N3CCN(C)CC3)c2)cc2c1cnn2C(C)C`, the viability at 10 µM amounted to 73% in experiment [1]; 63.9% in experiment [2]; 119% in experiment [3]; 74.3% in experiment [4]; 94.5% in experiment [5].
For `O=C(c1ccc(C(=O)N2CCC(N3CCCC3)CC2)c(Nc2ccccc2)c1)N1CCC(N2CCCC2)CC1`, the viability at 10 µM in experiment [1] stood at 121%; in experiment [2], 47.7%; in experiment [3], 122%; in experiment [4], 57.4%; in experiment [5], 67.2%.
In the same order, the values of `COc1cc2c(NC3CCN(C(C)C)CC3)nc(N3CCC(F)(F)CC3)nc2cc1OCCCN1CCCC1` are 71.2%, 56.9%, 107%, 62.4% and 91.7%.
Take `CC(C)N(CCCNC(=O)Nc1ccc(C(C)(C)C)cc1)C[C@H]1O[C@@H](n2cc(Br)c3c(N)ncnc32)[C@H](O)[C@@H]1O`: the viability at 10 µM is 69.6% in experiment [1]; 45.4% in experiment [2]; 41.3% in experiment [3]; 34% in experiment [4]; 19.8% in experiment [5].
As to `COc1cc2c(cc1OCCCN1CCCC1)N=C(N)C21CCC1`, the viability at 10 µM in experiment [1] was found to be 82.9%; in experiment [2], 46.9%; in experiment [3], 122%; in experiment [4], 55.4%; in experiment [5] it was 76.1%.
The like results for `CCOC(=O)CCNc1cc(N2CCc3ccccc3CC2)nc(-c2ccccn2)n1` were, in that order, 93.3%, 59.5%, 155%, 59.2% and 121%.
The like results for `CCCc1cc(C)[nH]c(=O)c1CNC(=O)c1cc(-c2ccc(N3CCN(C(C)C)CC3)nc2)cc2c1cnn2C(C)C` were, in that order, 95.6%, 77.8%, 152%, 68.8% and 102%.
As to `Clc1cccc(-c2nnnn2Cc2cccnc2)c1Cl`, the viability at 10 µM in experiment [1] is 127%; in experiment [2], 60.2%; in experiment [3], 106%; in experiment [4], 47.8%; in experiment [5] it was 77.1%.
Regarding `CC(C)Oc1ccc(-c2c[nH]cc2CN(C)CCN)cc1`, the viability at 10 µM in experiment [1] was found to be 25.7%; in experiment [2] it was 31.6%; in experiment [3] it was 132%; in experiment [4], 47.4%; in experiment [5], 77%.
`CNCCN1CCC(OCc2ccccc2)CC1`: the viability at 10 µM was found to be 42.5% in experiment [1]; 43.9% in experiment [2]; 139% in experiment [3]; 59.5% in experiment [4]; 69.2% in experiment [5].
On to `O=C(NCC(=O)N1CCCC1)Nc1ccc2cnccc2c1`, for which the viability at 10 µM in experiment [1] turned out to be 83.8%; in experiment [2], 76.1%; in experiment [3], 179%; in experiment [4] it was 68.5%; in experiment [5] it was 39%.
On to `CCNC(=O)c1cc2c(N3CCOC[C@@H]3C)ccnc2n1C`, for which the viability at 10 µM amounted to 70.2% in experiment [1]; 36.3% in experiment [2]; 104% in experiment [3]; 38.3% in experiment [4]; 84.1% in experiment [5].
Turning to `Nc1ncnc2c1ccn2[C@@H]1O[C@H]([C@H](O)c2ccccc2)[C@@H](O)[C@H]1O`, the viability at 10 µM in experiment [1] was found to be 14.9%; in experiment [2], 14.9%; in experiment [3], 97.6%; in experiment [4], 45%; in experiment [5], 68.9%.
`c1ccc([C@@H]2C[C@H]2NC2CCNCC2)cc1`: the viability at 10 µM was 114% in experiment [1]; 58.2% in experiment [2]; 79.5% in experiment [3]; 68% in experiment [4]; 68.3% in experiment [5].
In the case of `Clc1cc2c(NC3CCCC3)nnc(-c3ccncc3)c2cc1Cl`, the viability at 10 µM stood at 91.2% in experiment [1]; 65.8% in experiment [2]; 142% in experiment [3]; 72.9% in experiment [4]; 114% in experiment [5].
In the case of `O=C(NC[C@H](O)CN1CCc2ccccc2C1)c1ccnc(NC2CCC2)c1`, the viability at 10 µM came out at 32.6% in experiment [1]; 31.9% in experiment [2]; 83.1% in experiment [3]; 43.2% in experiment [4]; 50.6% in experiment [5].
As to `Cc1cn(-c2cc(NC(=O)c3ccc4c(c3)CN(c3cncnc3)C[C@@H]4C)cc(C(F)(F)F)c2)cn1`, the viability at 10 µM in experiment [1] was found to be 149%; in experiment [2], 50.6%; in experiment [3], 115%; in experiment [4], 63.8%; in experiment [5], 57.5%.
On to `NC1(c2ccc(-c3nc4ccn5c(=O)[nH]nc5c4cc3-c3ccccc3)cc2)CCC1`, for which the viability at 10 µM in experiment [1] was determined as 53.7%; in experiment [2], 32.7%; in experiment [3], 24.5%; in experiment [4] it was 19.9%; in experiment [5] it was 19.5%.
For `Cc1c(C(=O)O)cc(-c2ccc(C3CCNCC3)cc2)c2ccc(-c3ccc(C(F)(F)F)cc3)cc12`, the viability at 10 µM in experiment [1] was 64.2%; in experiment [2] it was 38.7%; in experiment [3] it was 143%; in experiment [4], 48.3%; in experiment [5], 76.8%.
The like results for `C[C@H]1CC(=O)Nc2cc(C(=O)NCCC3CC3)ccc2N1C(=O)N1CC2CC2C1` (stereo not given in full) were, in that order, 108%, 59.8%, 196%, 142% and 160%.
The like results for `C[C@@H](c1cccc(CN)c1)n1cc(Cl)cc(C(N)=O)c1=N` were, in that order, 106%, 33.4%, 172%, 51% and 99.7%.
Take `C[C@@H](c1cccc(C#N)c1)n1cc(Cl)cc(C(N)=O)c1=N`: the viability at 10 µM in experiment [1] is 76.7%; in experiment [2], 34.3%; in experiment [3] it was 126%; in experiment [4], 49.6%; in experiment [5], 62.2%.
The like results for `CCN(Cc1ccc(Cl)cc1)c1ncc(C(=O)NCCCN2CCCC2=O)c(NC2CCCC2)n1` were, in that order, 108%, 46.6%, 105%, 74.3% and 61.6%.
For the compound `O=C(NCc1ccccc1)c1ccc(S(=O)(=O)NCc2ccccc2)cc1`, the viability at 10 µM in experiment [1] is 103%; in experiment [2] it was 40.5%; in experiment [3], 97%; in experiment [4], 58.1%; in experiment [5], 82.9%.
Consider `O=C(Nc1cccnn1)N1CC(C/C=C/c2cncc(Oc3ccc(C(F)(F)F)cn3)n2)C1`, for which the viability at 10 µM was determined as 93.5% in experiment [1]; 55.5% in experiment [2]; 132% in experiment [3]; 50.3% in experiment [4]; 83.6% in experiment [5].
The like results for `CCOC(=O)CCNc1cc(N2CCc3ccccc3CC2)nc(-c2cccnc2)n1` were, in that order, 60.1%, 57.2%, 140%, 90.8% and 79.9%.
Turning to `O=C([C@@H](Cc1cccc(C(F)(F)F)c1)NS(=O)(=O)c1cc(F)c2c(c1)CCNC2)N1CCCC1`, the viability at 10 µM was determined as 114% in experiment [1]; 65% in experiment [2]; 81.5% in experiment [3]; 55.1% in experiment [4]; 60.3% in experiment [5].
As for `CCCCN(Cc1ccccc1)C(=O)c1ccc(S(=O)(=O)Nc2ccccc2)cc1`, the viability at 10 µM in experiment [1] is 80.8%; in experiment [2] it was 48.8%; in experiment [3], 125%; in experiment [4], 52.2%; in experiment [5], 63.6%.
For the compound `COc1cc(OC)cc(-c2noc(N3CCN(C)C4(CCN(c5ccnc(C)c5)CC4)C3)n2)c1`, the viability at 10 µM in experiment [1] amounted to 103%; in experiment [2], 49.2%; in experiment [3], 108%; in experiment [4] it was 74.2%; in experiment [5], 101%.
`Cn1cncc1[C@](O)(COc1ccc(C#N)cc1-c1ccc(OC(F)(F)F)cc1)c1ccc(C#N)cc1`: the viability at 10 µM amounted to 47% in experiment [1]; 18.5% in experiment [2]; 75.6% in experiment [3]; 40.9% in experiment [4]; 76.2% in experiment [5].

By viability is commonly meant a read-out of living cells in per cent, often relative to untreated cells.
